Experiment [1] concerns U2OS (p53 wild-type) and H1299 (p53 null) cells. In words: combination viability assay, excess over Bliss independence. In kind it is cell-based, human. The method, then: All values were normalized to no treatment. […] Percent cell death was determined by normalization to a no treatment control. Bliss Independence was determined by the formula C=A+B−A*B, where A is treatment with one compound alone and B is treatment with the second compound alone.
Cells were then treated with the indicated concentration of compound. […] Fluorescence intensity was determined using the Victor3 Plate Reader (PerkinElmer). Median percent survival or growth inhibition was calculated and normalized to a no treatment control.
The excess over the predicted Bliss independence was determined by subtracting the predicted Bliss effect for each treatment from the experimentally determined growth inhibition for the same treatment.

The next experiment has as its target T1, full-length Flag-Mdm2 (Homo sapiens, UniProt Q00987).
T1 construct: 100 ng of full-length Flag-Mdm2; made in house; host or cells: Sf9 insect cells (baculovirus; virus a gift from S. Grossman)
The experiment can be described thus: in vitro ubiquitination assay, full-length Flag-Mdm2. It counts as biochemical. The method, then: These assays were performed with 100 ng of full-length Flag-Mdm2 or 200 ng of Flag-Mdm2/HA-MdmX complexes (100 ng of each protein as each are present in a 1:1 ratio, when purified), ^32P-labeled ubiquitin, UbCH5c, and E1. Following a 30-minute incubation at 37° C., reactions were terminated and resolved on a SDS-PAGE gel followed by autoradiography. PC indicates positive control, and NC indicates negative control with UbCH5C eliminated from the reaction. The gels were quantified by phosphoimaging using ImageQuant software (GE Healthcare Bio-Sciences Corp., Piscataway, N.J.). […] Reactions were performed as in FIG. 11A except 500 ng GST-Mdm2 (residues 400-491) and GST-MdmX (residues 400-490) were used for ubiquitin polymerization. […]
Full-length Mdm2 in vitro ubiquitination reactions were performed in 15 μl reaction mixtures containing 50 mM TrisHC1 pH 7.5, 5 mM MgCl2, 2 mM NaF, 2 mM ATP, 0.6 mM DTT, 50 ng E1 (Boston Biochem, Cat. No. E-305), 1 μg PK-ubiquitin, 50 ng His-UbCH5C, and 100 ng Flag-Mdm2. […] The products were resolved by SDS-PAGE and analyzed by Western blot with anti-p53, anti-Mdm2 SMP14, 2A10, 3G5 mix, or anti-MdmX antibodies. […]
Referring now to FIG. 28b, as shown, Mdm2 in vitro ubiquitination is not inhibited by MEL17 treatment. […] Samples were analyzed by Western blotting with anti-Mdm2 antibodies. […]

“Also recorded” adds a separate entry of the source.

T1 sequence (Q00987 whole entry): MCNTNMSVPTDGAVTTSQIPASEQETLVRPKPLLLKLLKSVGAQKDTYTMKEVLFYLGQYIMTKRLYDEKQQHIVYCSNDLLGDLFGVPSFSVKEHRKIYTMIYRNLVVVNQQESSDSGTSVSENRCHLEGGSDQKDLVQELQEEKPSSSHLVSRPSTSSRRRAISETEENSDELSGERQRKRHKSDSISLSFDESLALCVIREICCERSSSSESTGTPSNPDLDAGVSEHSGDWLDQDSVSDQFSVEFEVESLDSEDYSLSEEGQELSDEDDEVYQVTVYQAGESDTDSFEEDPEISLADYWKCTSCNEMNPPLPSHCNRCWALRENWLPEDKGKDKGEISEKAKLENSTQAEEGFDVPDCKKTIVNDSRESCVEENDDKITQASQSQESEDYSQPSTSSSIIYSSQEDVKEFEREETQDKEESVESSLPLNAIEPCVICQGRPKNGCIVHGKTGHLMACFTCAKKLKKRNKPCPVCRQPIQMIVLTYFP

`CCCCn1c(=O)[nH]c(O)c(C2NCCc3c2[nH]c2ccccc32)c1=O` (stereo not shown) [MEL23]: the “synergy of MEL23 with Nutlin-3 on viability” value in experiment [1] (48 hours, excess over Bliss independence) is “Synergy between MEL23 and Nutlin-3 occurred, but to a lesser extent than the combination of MEL23 and DNA-damaging agents”. Further, the “synergy with DNA damaging agents in p53-null cells” value in experiment [1] (H1299 (p53-null)) is “synergized with DNA damaging agents; also recorded: cooperated with DNA-damaging agents in p53-null cells to a small, yet reproducible, extent”. Besides, the “synergy with camptothecin or etoposide on viability” value in experiment [1] (U2OS and H1299, 48 hours, excess over Bliss independence) was “synergistic effect on viability”. The “Mdm2 ligase activity (full-length Mdm2 in vitro ubiquitination)” value on full-length Flag-Mdm2 was “little to no inhibitory effect”.

For the origin of these results see patent publication US20120135089A1, “E3 LIGASE INHIBITORS” (priority 2009, published 2012).
